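Protocol summary: plate cells (96-well), add compound at 5 concentrations, incubate 48 h, interpolate endpoints linearly. GI50 is the concentration that inhibits growth by half. TGI denotes the concentration required for complete inhibition of growth.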
Experiments:
Assay in all cases: DTP human tumour cell line panel, 48 h
MALME-3M melanoma = system: MALME-3M melanoma
NCI/ADR-RES ovarian = system: NCI/ADR-RES ovarian
MDA-MB-435 = system: MDA-MB-435
HCT-15 colon = system: HCT-15 colon
HS 578T breast = system: HS 578T breast
HT29 colon = system: HT29 colon
OVCAR-4 ovarian = system: OVCAR-4 ovarian
UACC-257 melanoma = system: UACC-257 melanoma
BT-549 breast = system: BT-549 breast
OVCAR-8 ovarian = system: OVCAR-8 ovarian
SK-MEL-5 melanoma = system: SK-MEL-5 melanoma
UACC-62 melanoma = system: UACC-62 melanoma
DU-145 prostate = system: DU-145 prostate
NCI-H23 lung = system: NCI-H23 lung
786-0 renal = system: 786-0 renal
A549 NSCLC = system: A549 NSCLC
A498 renal = system: A498 renal
T-47D breast = system: T-47D breast
SW-620 colon = system: SW-620 colon
EKVX NSCLC = system: EKVX NSCLC
HCT-116 colon = system: HCT-116 colon
SF-539 CNS = system: SF-539 CNS
RXF 393 renal = system: RXF 393 renal
NCI-H226 lung = system: NCI-H226 lung
KM12 colon = system: KM12 colon
HOP-62 NSCLC = system: HOP-62 NSCLC
UO-31 renal = system: UO-31 renal
MOLT-4 leukemia = system: MOLT-4 leukemia
PC-3 prostate = system: PC-3 prostate
TK-10 renal = system: TK-10 renal
MCF7 breast = system: MCF7 breast
SN12C renal = system: SN12C renal
LOX IMVI melanoma = system: LOX IMVI melanoma
U251 CNS = system: U251 CNS
MDA-MB-231 breast = system: MDA-MB-231 breast
SF-268 CNS = system: SF-268 CNS
NCI-H460 lung = system: NCI-H460 lung
COLO 205 colon = system: COLO 205 colon
M14 melanoma = system: M14 melanoma
SNB-19 CNS = system: SNB-19 CNS
K-562 leukemia = system: K-562 leukemia
RPMI-8226 leukemia = system: RPMI-8226 leukemia
SF-295 CNS = system: SF-295 CNS
SNB-75 CNS = system: SNB-75 CNS
SK-MEL-28 melanoma = system: SK-MEL-28 melanoma
CAKI-1 renal = system: CAKI-1 renal
OVCAR-5 ovarian = system: OVCAR-5 ovarian
ACHN renal = system: ACHN renal
HCC-2998 colon = system: HCC-2998 colon
SK-OV-3 ovarian = system: SK-OV-3 ovarian
HOP-92 NSCLC = system: HOP-92 NSCLC
SK-MEL-2 melanoma = system: SK-MEL-2 melanoma
OVCAR-3 ovarian = system: OVCAR-3 ovarian
CCRF-CEM leukemia = system: CCRF-CEM leukemia
NCI-H522 lung = system: NCI-H522 lung

CN(C)CCCOc1cccc(NC2=C(Cl)C(=O)C(Nc3cccc(OCCCN(C)C)c3)=C(Cl)C2=O)c1
GI50 (MALME-3M melanoma): 0.592 µM | TGI (MALME-3M melanoma): 1.36 µM | GI50 (NCI/ADR-RES ovarian): 2.62 µM | TGI (NCI/ADR-RES ovarian): 9.69 µM | GI50 (MDA-MB-435): 1.04 µM | TGI (MDA-MB-435): 2.44 µM | GI50 (HCT-15 colon): 0.911 µM | TGI (HCT-15 colon): 2.45 µM | GI50 (HS 578T breast): 2.11 µM | TGI (HS 578T breast): 5.4 µM | GI50 (HT29 colon): 0.56 µM | TGI (HT29 colon): 1.59 µM | GI50 (OVCAR-4 ovarian): 0.216 µM | TGI (OVCAR-4 ovarian): 0.592 µM | GI50 (UACC-257 melanoma): 0.941 µM | TGI (UACC-257 melanoma): 2.28 µM | GI50 (BT-549 breast): 1.57 µM | TGI (BT-549 breast): 2.93 µM | GI50 (OVCAR-8 ovarian): 1.57 µM | TGI (OVCAR-8 ovarian): 3.44 µM | GI50 (SK-MEL-5 melanoma): 1 µM | TGI (SK-MEL-5 melanoma): 2.37 µM | GI50 (UACC-62 melanoma): 1.5 µM | TGI (UACC-62 melanoma): 2.95 µM | GI50 (DU-145 prostate): 0.765 µM | TGI (DU-145 prostate): 2 µM | GI50 (NCI-H23 lung): 1.13 µM | TGI (NCI-H23 lung): 2.79 µM | GI50 (786-0 renal): 0.763 µM | TGI (786-0 renal): 2.09 µM | GI50 (A549 NSCLC): 1.9 µM | TGI (A549 NSCLC): 3.5 µM | GI50 (A498 renal): 1.59 µM | TGI (A498 renal): 3.01 µM | GI50 (T-47D breast): 0.243 µM | TGI (T-47D breast): 0.779 µM | GI50 (SW-620 colon): 0.276 µM | TGI (SW-620 colon): 0.766 µM | GI50 (EKVX NSCLC): 1.19 µM | TGI (EKVX NSCLC): 2.54 µM | GI50 (HCT-116 colon): 0.286 µM | TGI (HCT-116 colon): 0.804 µM | GI50 (SF-539 CNS): 1.8 µM | TGI (SF-539 CNS): 3.22 µM | GI50 (RXF 393 renal): 0.885 µM | TGI (RXF 393 renal): 2.22 µM | GI50 (NCI-H226 lung): 5.85 µM | TGI (NCI-H226 lung): 14.1 µM | GI50 (KM12 colon): 1.32 µM | TGI (KM12 colon): 2.73 µM | GI50 (HOP-62 NSCLC): 1.93 µM | TGI (HOP-62 NSCLC): 3.68 µM | GI50 (UO-31 renal): 1.45 µM | TGI (UO-31 renal): 2.76 µM | GI50 (MOLT-4 leukemia): 0.515 µM | TGI (MOLT-4 leukemia): 1.59 µM | GI50 (PC-3 prostate): 1.57 µM | TGI (PC-3 prostate): 3.29 µM | GI50 (TK-10 renal): 0.831 µM | TGI (TK-10 renal): 2.12 µM | GI50 (MCF7 breast): 0.184 µM | TGI (MCF7 breast): 0.408 µM | GI50 (SN12C renal): 0.345 µM | TGI (SN12C renal): 0.865 µM | GI50 (LOX IMVI melanoma): 0.175 µM | TGI (LOX IMVI melanoma): 0.346 µM | GI50 (U251 CNS): 1.57 µM | TGI (U251 CNS): 2.97 µM | GI50 (MDA-MB-231 breast): 0.655 µM | TGI (MDA-MB-231 breast): 1.6 µM | GI50 (SF-268 CNS): 1.7 µM | TGI (SF-268 CNS): 3.47 µM | GI50 (NCI-H460 lung): 1.8 µM | TGI (NCI-H460 lung): 3.48 µM | GI50 (COLO 205 colon): 1.56 µM | TGI (COLO 205 colon): 3.34 µM | GI50 (M14 melanoma): 1.33 µM | TGI (M14 melanoma): 2.74 µM | GI50 (SNB-19 CNS): 1.78 µM | TGI (SNB-19 CNS): 3.32 µM | GI50 (K-562 leukemia): 0.307 µM | TGI (K-562 leukemia): 1.42 µM | GI50 (RPMI-8226 leukemia): 1.25 µM | TGI (RPMI-8226 leukemia): 4.54 µM | GI50 (SF-295 CNS): 1.73 µM | TGI (SF-295 CNS): 3.18 µM | GI50 (SNB-75 CNS): 1.68 µM | TGI (SNB-75 CNS): 3.6 µM | GI50 (SK-MEL-28 melanoma): 1.71 µM | TGI (SK-MEL-28 melanoma): 3.16 µM | GI50 (CAKI-1 renal): 1.45 µM | TGI (CAKI-1 renal): 2.76 µM | GI50 (OVCAR-5 ovarian): 1.83 µM | TGI (OVCAR-5 ovarian): 3.43 µM | GI50 (ACHN renal): 1.78 µM | TGI (ACHN renal): 3.16 µM | GI50 (HCC-2998 colon): 1.34 µM | TGI (HCC-2998 colon): 2.81 µM | GI50 (SK-OV-3 ovarian): 5.45 µM | TGI (SK-OV-3 ovarian): 18.3 µM | GI50 (HOP-92 NSCLC): 0.58 µM | TGI (HOP-92 NSCLC): 1.28 µM | GI50 (SK-MEL-2 melanoma): 1.53 µM | TGI (SK-MEL-2 melanoma): 3.2 µM | GI50 (OVCAR-3 ovarian): 0.188 µM | TGI (OVCAR-3 ovarian): 0.355 µM | GI50 (CCRF-CEM leukemia): 0.402 µM | TGI (CCRF-CEM leukemia): 3.26 µM | GI50 (NCI-H522 lung): 0.172 µM | TGI (NCI-H522 lung): 0.437 µM

Source: PubChem BioAssay (NCI)
